Consider 13 compounds from patent US20210340524A1, “METHODS FOR IDENTIFYING CHIMERIC ANTIGEN RECEPTOR-TARGETING LIGANDS AND USES THEREOF” (Massachusetts Institute of Technology, priority 2020, published 2021).

Series [1] deals with FMC63 IgG. Nature of the series: ELISA of N-terminally biotinylated F12 variants on streptavidin plate, binding to FMC63 IgG. Also on record: species or system murine. The following applies: biotinylated peptides, read-out: Kd (nM), FMC63 binding affinity of F12 variants with N-terminal flanking residues. (An ELISA detects its analyte on a solid surface through an enzyme-linked reagent.)
Source text: It was further evaluated if addition of flanking residues to the terminus of a FMC63-binding mimotope would increase its binding affinity to FMC63, e.g., by increasing the mimotope surface area available for engaging in protein-protein interactions with FMC63. […] Additional Ser-Gly residues (between 3 and 15 additional residues) were included to further extend the N-terminal flanking region.

The test system of another series is FMC63 CAR T cells. In words: In vivo proliferation of FMC63 CAR T cells in inguinal lymph nodes (cell trace violet dilution). The following applies: mice, s.c. tail base, 10 ug monovalent or 20 ug bivalent + 25 μg cyclic-di-GMP; inguinal LNs 48 hours post-vaccination. How it is done: CD45.1^+ donor FMC63 CAR T cells were prepared as described in Example 3 and labeled with cell trace violet according to manufacturer's protocol. 2×10^6 CAR T cells were administered into CD45.2^+ recipient mice via tail vein injection on Day 0. The following day, recipient mice were vaccinated by subcutaneous injection at the tail base with the following vaccine formulation: […]
(i) 10 ug of monovalent amph-mimotope (Amph-K-A1 or Amph-K-C2)+25 μg of cyclic-di-GMP in 1×PBS; or
(ii) 20 ug of amph-Bi-F12-mimotope (PEG4 or PEG8)+25 μg of cyclic-di-GMP in 1×PBS.
The volume of the formulation was 100 μL total, and the mice were administered 50 μL per each site of the tail base. Control mice received no vaccination. At 48 hours post-vaccination, recipient mice were euthanized and inguinal LNs were isolated for FACS analysis of CAR T proliferation.

Series [2] has as its system FMC63 scFv. In words: Dissociation kinetics of FMC63 scFv from yeast clones, flow cytometry. Format: binding, murine. The following applies: yeast clones labeled with FMC63 scFv, washed, incubated 0-72 hours. How it is done:
The dissociation kinetics following binding of the mimotopes to FMC63 were also investigated. Briefly, yeast clone expressing F12 (SEQ ID NO: 18) or K-A1 (SEQ ID NO: 100) were incubated with labeled FMC63 scFv. The yeast were then washed, and incubated for 0-72 hours prior to analysis of the degree of FMC63 scFv labeling by flow cytometry. […] However, the yeast clone expressing K-A1 retained FMC63 even up to 72 hours, indicating slower dissociation kinetics compared to F12.
On the technique in general: A flow cytometer gives signals particle by particle.

Series [3] relates to FMC63 IgG. In words: Mimotope binding to FMC63 after DTT treatment of yeast, flow cytometry. Also on record: species or system murine. The following applies: DTT 0.01-10 mM, 30 minutes, room temperature. How it is done:
To determine the formation of an intra-peptidyl disulfide bridge formed by the two Cys residues, mimotope expressing yeast were treated in reducing conditions and binding of the mimotope to FMC63 IgG was measured. […] Similarly, control cells expressing Aga2p (connected to the yeast surface by disulfide bridge) were treated with DTT. Following treatment, cells were labelled with biotinylated Aga2p or FMC63 and binding was measured by flow cytometry. At mild reducing conditions, Aga2p was maintained on the yeast surface while mimotope binding to FMC63 was abolished (FIG. 6). The inhibition of mimotope binding to FMC63 following treatment with a reducing agent reaffirms the formation of the disulfide bond and its importance for binding.
Target sequence in this assay (as listed by the source): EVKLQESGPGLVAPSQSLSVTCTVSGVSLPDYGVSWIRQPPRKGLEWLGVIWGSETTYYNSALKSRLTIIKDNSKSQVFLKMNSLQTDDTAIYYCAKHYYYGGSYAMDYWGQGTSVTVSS
Target sequence in this assay (as listed by the source): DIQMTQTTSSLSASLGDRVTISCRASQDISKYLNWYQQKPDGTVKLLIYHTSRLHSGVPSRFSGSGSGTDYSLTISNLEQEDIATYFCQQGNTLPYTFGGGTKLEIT

Series [4] has as its target FMC63 scFv. Nature of the series: Yeast clone binding to biotinylated FMC63 scFv monomer, Kd by FACS. Further details: species or system murine. The note with it: yeast clones. How it is done: Identifying specific mimotope clones of varying affinities will provide flexibility in treatments. In order to validate specific sequences, clones were isolated and measured for their affinity to FMC63. Specifically, a subset of mimotope clones were selected from the fixed library sequence described in Example 5. […] Given the FDA-approved CAR is an scFV derived from the parental IgG, mimotope binding to FMC63-scFv monomer was tested using biotinylated FMC63 scFV to measure Kd by FACS (FIG. 10B). […] This screen positively identified mimotope clones with varying affinities to FMC63 which may be used for a tailored vaccine approach.

Series [5] relates to FMC63 anti-hCD19 CAR-T cells. Nature of the series: IFNγ secretion of FMC63 CAR-T cells co-cultured with amph-mimotope coated K562 cells (ELISA). The following applies: K562 cells coated with 10 μM amph-mimotope; E:T 10:1; 24 hours; compared to amphiphile only control. Format: cell-based. On the procedure:
To determine the effect of the CD19 amph-mimotope on chimeric antigen receptor (CAR) T cells, in vitro stimulation of CAR-T cells was assessed after co-culture with antigen presenting cells (APCs) providing the amph-mimotope (FIG. 8A). Specifically, K562 cells were pelleted at 1,000×g for 3 minutes and washed with PBS twice to remove residual protein. The cell pellet was then resuspended at 1×10^6 cells/mL in PBS containing amph-mimotope ([…]; SEQ ID NO: 5) at 10 μM and incubated at 37° C. for 30 minutes. The labeling reaction was stopped by pelleting cells and washing with PBS. To mimic antigen presenting cells in lymph nodes, K562 cells were decorated with amph-mimotope, and then co-cultured at an effector to target (E:T) ratio of 10:1 with FMC63 expressing CAR-T cells (hCD19-CAR; SEQ ID NO: 78) for 24 hours. […]

Series [6] can be described thus: Micelle stability of lipid-oligonucleotide conjugates in the presence of serum (FBS). In kind it is physicochemical. The note with it: for micelle stability on increasing number of guanines: in the presence of serum. From the text: In certain embodiments, the linker is one or more guanines, for example between 1-10 guanines. It has been discovered that altering the number of guanines between a cargo such as a CpG oligonucleotide, and a lipid tail controls micelle stability in the presence of serum proteins. Therefore, the number of guanines in the linker can be selected based on the desired affinity of the conjugate for serum proteins such as albumin. When the cargo is a CpG immunostimulatory oligonucleotide and the lipid tail is a diacyl lipid, the number of guanines affects the ability of micelles formed in aqueous solution to dissociate in the presence of serum: 20% of the non-stabilized micelles (lipo-G0T10-CG) (SEQ ID NO: 138) were intact, while the remaining 80% were disrupted and bonded with FBS components.

Where a SMILES comes first, the peptide text is derived from it. Bridges are numbered along the chain shown (N, C = ends). Where no end group is shown, it is not given here. The star is where a group is joined. Biotin = O=C1N[C@H]2[C@H](CS[C@H]2CCCCC(=O)*)N1

Sequence of FMC63 scFv (as listed by the source): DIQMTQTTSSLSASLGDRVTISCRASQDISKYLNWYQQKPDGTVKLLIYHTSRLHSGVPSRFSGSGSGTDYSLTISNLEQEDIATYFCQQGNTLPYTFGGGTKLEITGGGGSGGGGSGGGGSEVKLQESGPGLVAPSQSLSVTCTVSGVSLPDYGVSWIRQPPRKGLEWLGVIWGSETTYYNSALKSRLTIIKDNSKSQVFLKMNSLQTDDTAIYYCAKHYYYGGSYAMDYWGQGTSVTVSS

As for `CC[C@H](C)[C@H](NC(=O)[C@H](CCCNC(=N)N)NC(=O)[C@H](CO)NC(=O)[C@H](C)NC(=O)[C@H](CO)NC(=O)CNC(=O)CNC(=O)CNC(=O)CNC(=O)[C@H](CO)NC(=O)CNC(=O)CNC(=O)CCCC[C@@H]1SC[C@@H]2NC(=O)N[C@@H]21)C(=O)N[C@H]1CSSC[C@@H](C(=O)N[C@@H](CCCCN)C(=O)N[C@@H](CCC(=O)O)C(=O)N[C@@H](CC(C)C)C(=O)O)NC(=O)[C@H](CC(N)=O)NC(=O)[C@H](Cc2c[nH]c3ccccc23)NC(=O)[C@@H]2CCCN2C1=O` [SEQ ID NO: 97] (Biotin-GGSGGGGSASRICPWNCKEL-OH; disulfide 13-17), at FMC63 IgG [1], the Kd is 0.139 nM.
Same read-out and setting: in the case of `CC[C@H](C)[C@H](NC(=O)[C@H](CCCNC(=N)N)NC(=O)[C@H](CO)NC(=O)[C@H](C)NC(=O)[C@H](CO)NC(=O)CNC(=O)CNC(=O)CNC(=O)CNC(=O)[C@H](CO)NC(=O)CNC(=O)CNC(=O)CNC(=O)CNC(=O)[C@H](CO)NC(=O)CNC(=O)CCCC[C@@H]1SC[C@@H]2NC(=O)N[C@@H]21)C(=O)N[C@H]1CSSC[C@@H](C(=O)N[C@@H](CCCCN)C(=O)N[C@@H](CCC(=O)O)C(=O)N[C@@H](CC(C)C)C(=O)O)NC(=O)[C@H](CC(N)=O)NC(=O)[C@H](Cc2c[nH]c3ccccc23)NC(=O)[C@@H]2CCCN2C1=O` [SEQ ID NO: 98] (Biotin-GSGGGGSGGGGSASRICPWNCKEL-OH; disulfide 17-21) it was 0.134 nM; in that of `CC[C@H](C)[C@H](NC(=O)[C@H](CCCNC(=N)N)NC(=O)[C@H](CO)NC(=O)[C@H](C)NC(=O)[C@H](CO)NC(=O)CNC(=O)CNC(=O)CNC(=O)CNC(=O)[C@H](CO)NC(=O)CNC(=O)CNC(=O)CNC(=O)CNC(=O)[C@H](CO)NC(=O)CNC(=O)CNC(=O)CNC(=O)CNC(=O)CCCC[C@@H]1SC[C@@H]2NC(=O)N[C@@H]21)C(=O)N[C@H]1CSSC[C@@H](C(=O)N[C@@H](CCCCN)C(=O)N[C@@H](CCC(=O)O)C(=O)N[C@@H](CC(C)C)C(=O)O)NC(=O)[C@H](CC(N)=O)NC(=O)[C@H](Cc2c[nH]c3ccccc23)NC(=O)[C@@H]2CCCN2C1=O` [SEQ ID NO: 99] (Biotin-GGGGSGGGGSGGGGSASRICPWNCKEL-OH; disulfide 20-24), 0.153 nM.
With “Amph-K-C2: monovalent amph-mimotope: mimotope SEQ ID NO: 129 conjugated to DSPE-PEG2k (GGGSASRICPWNCKELPSPPRIFGNR; not fully specified; DSPE-PEG2k conjugate; Synthetic: Mimotope of Amph-K-C2)”, the “proliferation of CAR T cells in vivo measured by cell violet dilution” value in the series with FMC63 CAR T cells was “observed”.
Consider PRKHSGRICPWNCKELDNPPFIFGNR [K-A1], for which, in the series on FMC63 scFv [2], the “time of retention of FMC63 scFv labeling after wash” value is ≥ 72 h.
On to RHCPWNCSLL [Clone A1], for which the “mimotope binding to FMC63 after DTT treatment” value in the series on FMC63 IgG [3] is “abolished”.
Regarding RICPWNCKEL [Clone F12], in the series with FMC63 scFv [2], the “time of retention of FMC63 scFv labeling after wash” value was ≤ 0.5 h.
With RICPWSCMVV [Clone B7], the dissociation constant Kd on FMC63 scFv [4] was > 1000 nM.
Take RMCPWSCRPH [Clone A8]: the dissociation constant Kd at FMC63 scFv [4] was > 1000 nM.
In the case of “amph-mimotope: DSPE-PEG2000 conjugated onto the N-terminus of synthesized cyclic mimotope RHCPWNCSLL (SEQ ID NO: 5) (disulfide 3-7 (inferred); not fully specified (N-terminus))”, the “activation of CAR-T cells measured by IFNγ secretion” value in series [5] is “significantly activated”.
Take “lipo-G0T10-CG: diacyl lipid tail, G0T10 linker, CpG immunostimulatory oligonucleotide; non-stabilized micelles (DNA TTTTTTTTTTCG; diacyl lipid tail conjugated, backbone chemistry not given here)”: in series [6] (in the presence of serum (FBS)), the “percentage of micelles disrupted and bonded with FBS components” value amounted to 80%.
Consider “lipo-G8T2-CG: diacyl lipid tail, G8T2 linker, CpG immunostimulatory oligonucleotide (DNA GGGGGGGGTTCG; diacyl lipid tail conjugated, backbone chemistry not given here)”, for which the “micelle stability on increasing number of guanines” value in series [6] is given as “did not further enhance micelle stability”.
With “lipo-G10T0-CG: diacyl lipid tail, G10T0 linker, CpG immunostimulatory oligonucleotide (DNA GGGGGGGGGGCG; diacyl lipid tail conjugated, backbone chemistry not given here)”, the “micelle stability on increasing number of guanines” value in series [6] was “did not further enhance micelle stability”.

A word on the Kd: it is the constant that tells how readily two partners part at equilibrium.
